Reference: patent publication US9920037B2, “Diaryl isoxazoline compound” (Elanco Tiergesundheit AG, priority 2014, dated 2018)

Assays:
[1] = test system: sea lice Lepeophtheirus salmonis; test: Activity in vivo against copepodids (Lepeophtheirus salmonis) on Atlantic salmon, medicated feed; conditions: Atlantic salmon (Salmo salar L.), medicated feed 1 mg/kg/day for 7 consecutive days; counted 10 days after treatment end
Protocol: The study used two groups of 45 Atlantic salmon (Salmo salar L.), each, with an average weight of 400 g per fish. Fish were challenged with sea lice copepodids Lepeophtheirus salmonis) (Cohort I). When cohort I reached pre-adult stage, all fish were challenged with a second cohort of sea lice copepodids (Cohort II).
Treatment was initiated when sea lice in cohort I became pre-adult/adults and sea lice in cohort II were early chalimus stages:
One group was treated with medicated feed-pellet containing the (S)-enantiomer of the compound of formula (I) at 1 mg/kg/day, during 7 consecutive days. One group was a placebo control group. The medicated pellets were prepared by dry coating commercially available fish feed pellets with a pre-mix containing the (S)-enantiomer of the compound of formula (I) to reach a content of 0.02% (w/w) active ingredient in the fish feed.
Sea lice were counted 10 days after treatment end.

[2] = test system: Lepeophtheirus salmonis copepodids; test: Activity in vitro against Lepeophtheirus salmonis at copepodid stage; type: cell-based; conditions: 0.16 ng/ml sea water; 1 hour contact, then 48 h in untreated sea water
Protocol: Sea lice copepodids were used to seed a 96-well plate containing the test substances to be evaluated for antiparasitic activity. The racemic compound of formula (I) according to the present invention and the racemic compound No. 1.48 according to WO2010/070068, page 47 were tested by serial dilution in order to determine its minimal effective dose (MED). Copepodids were left in contact with each test compound diluted in sea water for 1 hour. They were then incubated in untreated sea water for 48 h. Efficacy against sea lice was then confirmed if no copepodid moved over a period of 80 seconds.

[3] = test system: adult R. sanguineus ticks; test: Activity in vivo against Rhipicephalus sanguineus ticks (dog tick) on rabbits; conditions: spray application on ears; for threshold concentration where the efficacy drops below 90%: rabbits
Protocol: On day 0, rabbits are treated with the test compound at a given dose by spray application on their ears only. On day +1, the animals are infested on their ears with adult R. sanguineus ticks (sex ratio 1:1). Evaluation of efficacy is performed 24 h, 48 h, and 72 h after infestation by counting the numbers of dead and live ticks recovered from the animals. Efficacy is expressed as comparison with a placebo treated group using the Abbot's formula. Infestations can be repeated at weekly intervals until efficacy drops. The racemic compound of formula (I) according to the present invention and the racemic compound No. 1.48 according to WO2010/070068, page 47 were tested at different concentrations in order to determine the threshold concentration where the efficacy drops below 90%.

[4] = test system: Rhipicephalus sanguineus nymphs; test: Activity in vivo against Rhipicephalus sanguineus nymphs on Mongolian gerbils (spray application); conditions: 1.0 mg/kg animal biomass, Mongolian gerbils (Meriones unguiculatus)
Protocol: On day 0, gerbils are treated with the respective test compound at a given dose by spray application. On day +1 (+2), the animals are infested with nymphs of R. sanguineus. Ticks are left on the animals until full repletion. Seven days after infestation nymphs dropped off fully engorged are collected and counted. Efficacy in killing is expressed as a tick number reduction in comparison with a placebo treated group, using the Abbot's formula.

Structure (SMILES): C#CCNC(=O)CNC(=O)c1sc(C2=NO[C@@](c3cc(Cl)c(Cl)c(Cl)c3)(C(F)(F)F)C2)cc1C [(S)-enantiomer of the compound of formula (I)]
- efficacy (sea lice count) [1]: 100%

Structure (SMILES): C#CCNC(=O)CNC(=O)c1sc(C2=NOC(c3cc(Cl)cc(Cl)c3)(C(F)(F)F)C2)cc1C (racemic) [racemic compound No. 1.48, reference compound]
- efficacy (no copepodid moved over 80 seconds) [2]: 0%
- efficacy (vs placebo, Abbot's formula) ([3]; 15 mg/m^2, rabbits): 82%
- threshold concentration where the efficacy drops below 90% [3]: 15 mg/m^2
- efficacy (tick number reduction vs placebo, Abbot's formula) [4]: 77%

Structure (SMILES): C#CCNC(=O)CNC(=O)c1sc(C2=NOC(c3cc(Cl)c(Cl)c(Cl)c3)(C(F)(F)F)C2)cc1C (racemic) [racemic compound of formula (I)]
- efficacy (no copepodid moved over 80 seconds) [2]: 100%
- efficacy (vs placebo, Abbot's formula) ([3]; 3 mg/m^2, rabbits): 73%
- efficacy (vs placebo, Abbot's formula) ([3]; 7.5 mg/m^2, rabbits): 93%
- threshold concentration where the efficacy drops below 90% [3]: 3 mg/m^2
- efficacy (tick number reduction vs placebo, Abbot's formula) [4]: 87%
